Reference: the NIST ThermoML archive (doi:10.1016/j.jct.2017.03.024)

Conditions: Liquid, Closed cell (Static) method

O [water]
Conditions | vapor or sublimation pressure [kPa]
298 K | 3.35
313 K | 7.4
323 K | 12.12
328.2 K | 15.07
333 K | 18.99
337.5 K | 23.33
